Patent publication US9884874B2, “Bromodomain-inhibiting compounds and pharmaceutical composition comprising same for preventing or treating a cancer” (KAINOS MEDICINE, INC., priority 2014, dated 2018)
pIC50: −log10 of the molar value.

How the values were obtained:
human BRD4 bromodomain 1 = human BRD4 bromodomain 1 (Homo sapiens (Human), UniProt O60885); test: Bromodomain binding assay (BRD4 Alpha-screen); conditions: acetylated histone H4 peptide
Method: Bromodomain binding assays were carried out in Reaction Biology (PA, USA) to test the degrees of the inventive compounds in inhibiting the human BRD4 bromodomain 1 by Alpha-screen assay method.
Recombinant human BRD4 bromodomain 1 expressed in E. coli with N-terminal His-tag was used as the enzyme target.
A synthetic peptide ([…]-GSGSK-biotin) containing 1 to 21th amino acids of histone H4 acetylated at lysine 5, 8, 12 and 16 and conjugated to biotin was purchased from Millipore.
BRD4-1 (44 to 170th amino acids; Genbank Accession # NM_058243) was expressed in E. coli with N-terminal His-tag (see, Ni-NTA spin Kit Handbook (Qiagen), second edition, January, 2008). Nickel-Chelate ALPHA acceptor beads (Perkin Elmer) were used to specifically bind BRD4-1, and ALPHA streptavidin donor beads (Perkin Elmer) were used because they specifically recognized the biotinylated H4 peptide.
BRD binding assays were performed in a mixture comprising 50 mM Hepes (pH7.5), 100 mM NaCl, 0.05% CHAPS, 0.1% BSA, and 1% DMSO. After an assay reaction time of 60 min at 25° C., binding was measured with streptavidin donor beads and nickel-chelate acceptor beads. ALPHA signal was detected on Enspire (Ex/Em=680/520-620 nm). IC50 values were calculated from the fit of the dose-response curves. All IC50 values represent geometric mean values of a minimum of four determinations. These assays generally produced results within 3-fold of the reported mean.

[1] = system: LnCAP (human prostatic adenocarcinoma cell line); test: Anti-proliferative activity test (CellTiter-Glo), LnCAP; assay type: cell-based; conditions: first value of LnCAP/MV4-11 cell, read-out: Cell proliferation IC50 (LnCAP)
Method: (§1) IC50 (uM) of the compounds obtained in Examples 1 to 18 against hematological cancer cells and solid tumors was measured for identifying anti-proliferative activities.
(§2) A human prostatic adenocarcinoma cell line, LnCAP (ATCC®, CRL-1740) and human leukemia cell line MV4-11 (ATCC®, CRL-9591) were used to test the degrees of the compounds 1 to 18 in inhibiting the cancer cell growth. The testing cell concentration was adjusted to 6.7×10^3 cells/ml with a culture medium supplemented with 10% FBS, in the temperature of 37° C., 5% CO2 and 95% humidity. Culture media and FBS were purchased from GIBCO. 90 μL of cell suspensions thus obtained was added to two 96-well plates with the final cell density of 600 cells/well, followed by addition of 10 μL of culture medium to each well of plate. The plates were incubated overnight in a humidified incubator at 37° C. with 5% CO2.
(§3) Compounds 1 to 18 were each dissolved with dimethylsulfoxide (DMSO) or phosphate buffer solution (PBS) as a stock solution, and 200× solutions of test compound (2 mM) using DMSO were prepared. Then, the DMSO solution thus obtained was diluted 20-fold with culture medium or PBS to obtain 10× working solution. 10 μL of 10× working solution (drug solution) was dispensed to each well (triplicate for each concentration). The final concentration of DMSO in culture medium was 0.5% [v/v].
(§4) Cell viability was determined using CellTiter-Glo® (CTG) assay. 100 μL of CellTiter-Glo® was added to the equal volume of the cultured cells to read luminescence in EnVision Multi Label Reader.

[2] = system: MV4-11 (human leukemia cell line); test: Anti-proliferative activity test (CellTiter-Glo), MV4-11; assay type: cell-based; conditions: second value of LnCAP/MV4-11 cell, read-out: Cell proliferation IC50 (MV4-11)
Method: as §1, §2, §3, §4

OPM-2 (multiple myeloma) = test: Anti-proliferative activity, OPM-2; assay type: cell-based; conditions: Homo sapiens, read-out: Cell proliferation, IC50
[3] = system: MOLM13 (acute myeloid Leukemia); test: Anti-proliferative activity, MOLM13; assay type: cell-based; conditions: Homo sapiens, MOLM-13, read-out: Cell proliferation, IC50
MDA-MB-435 (breast) = test: Anti-proliferative activity, MDA-MB-435; assay type: cell-based; conditions: Homo sapiens, read-out: Cell proliferation, IC50
[4] = system: NCI-H526 (variant small cell lung cancer); test: Anti-proliferative activity, NCI-H526; assay type: cell-based; conditions: Homo sapiens, read-out: Cell proliferation, IC50
[5] = Animal pharmacokinetics in ICR mice; assay type: in vivo; conditions: mouse; for AUC / MRT / clearance / bioavailability: ICR, in vivo
Method: Pharmacokinetics of the compounds of 1, 2, 7, 8 11 and 15 were evaluated in ICR mice (6˜8 weeks, 20˜25 g) following intravenous (IV) administration at 10 mg/kg and per oral (PO) administration at 10 mg/kg dose level, respectively. Especially, the additional dose level of Compound 1 was 30 mg/kg.
(§5) For serum compound analysis, blood samples were collected by cardiac puncture over 24 hr time course. 20 μL of spiked plasma was added into a 96-well plate, adding ten volumes of internal standard (IS) in acetonitrile (ACN) to the obtained precipitated protein mixed thoroughly, centrifuged at 4,000 rpm for 10 min. 150 μL of supernatant thus obtained was transferred to another pre-labeled 96-well plate, mixed with 150 μL of water. 5 μL or 10 μL of the mixture was injected into the LC-MS system under the following conditions:
(§6) Column: API-4000+Waters UPLC (TCLM08);
(§7) Lower limit of quantification (LLOQ) was at 1 ng/mL. Pharmacokinetic parameters of half-life (T1/2), clearance (CL), maximum plasma concentration (Cmax), mean residence time (MRT) and bioavailability (F %), plasma exposure (AUC) of the compound were calculated using Phoenix WinNonlin 6.3 (non-compartmental model).

[6] = Pharmacokinetics in Sprague Dawley rats; assay type: in vivo, Sprague Dawley (SD) rats; conditions: plasma, rat
Method: as §5, §6, §7
Also, pharmacokinetics of compound 1 was evaluated in Sprague Dawley (SD) rats following IV administration at 3 mg/kg or 10 mg/kg dose level, and PO administration at 3 mg/kg or 10 mg/kg dose level, respectively.

[7] = Pharmacokinetics in beagle dogs; assay type: in vivo; conditions: plasma, dog, 3 mg/kg
Method: as §5, §6, §7
Further, pharmacokinetics of Compound 1 in dog was evaluated in beagle dogs following IV administration at 3 mg/kg and PO administration at 3 mg/kg dose level, respectively.

Q: With COc1ccc2c(c1)C(c1ccc(Cl)cc1)=N[C@@H](COS(C)(=O)=O)c1nnc(C)n1-2 [Compound 1, (R)-(6-(4-chlorophenyl)-8-methoxy-1-methyl-4H-benzo[f]-[1,2,4]triazolo[4,3-a][1,4]diazepin-4-yl)methyl methanesulfonate] as the molecule, how does the pIC50 (human BRD4 bromodomain 1) read?
A: 6.72

Q: And the pIC50 [1]?
A: 6.33

Q: What about the pIC50 [2] of the same molecule?
A: 6.51

Q: What about the pIC50 (OPM-2 (multiple myeloma)) of the same molecule?
A: 5.84

Q: What about the pIC50 [3] of the same molecule?
A: 5.82

Q: What about the pIC50 (MDA-MB-435 (breast)) of the same molecule?
A: 5.22

Q: And the pIC50 [4]?
A: 5.58

Q: What about the AUC ([5]; IV, 10 mg/kg) of the same molecule?
A: 74 µM·h

Q: And the MRT ([5]; IV, 10 mg/kg)?
A: 4.7 h

Q: What about the clearance ([5]; IV, 10 mg/kg) of the same molecule?
A: 5.1 mL/min/kg

Q: What about the AUC ([5]; IV, 30 mg/kg) of the same molecule?
A: 302 µM·h

Q: And the clearance ([5]; IV, 30 mg/kg)?
A: 3.7 mL/min/kg

Q: What about the AUC ([5]; PO, 10 mg/kg) of the same molecule?
A: 76 µM·h

Q: And the MRT ([5]; PO, 10 mg/kg)?
A: 6.2 h

Q: And the bioavailability ([5]; PO, 10 mg/kg)?
A: 103%

Q: And the AUC ([5]; PO, 30 mg/kg)?
A: 260 µM·h

Q: What about the bioavailability ([5]; PO, 30 mg/kg) of the same molecule?
A: 86.2%

Q: And the “dose linearity in plasma exposure (in words)” value ([5]; FIG. 1, 10 and 30 mg/kg)?
A: good dose linearity in plasma exposure

Q: And the AUC ([6]; IV, 3 mg/kg)?
A: 2 µM·h

Q: And the clearance ([6]; IV, 3 mg/kg)?
A: 54.8 mL/min/kg

Q: And the AUC ([6]; IV, 10 mg/kg)?
A: 15.4 µM·h

Q: And the MRT ([6]; IV, 10 mg/kg)?
A: 1.86 h

Q: What about the clearance ([6]; IV, 10 mg/kg) of the same molecule?
A: 24.9 mL/min/kg

Q: What about the AUC ([6]; PO, 3 mg/kg) of the same molecule?
A: 1 µM·h

Q: What about the bioavailability ([6]; PO, 3 mg/kg) of the same molecule?
A: 50.6%

Q: What about the AUC ([6]; PO, 10 mg/kg) of the same molecule?
A: 13.6 µM·h

Q: What about the bioavailability ([6]; PO, 10 mg/kg) of the same molecule?
A: 88.6%

Q: And the AUC ([7]; IV)?
A: 19.7 µM·h

Q: What about the MRT ([7]; IV) of the same molecule?
A: 4.9 h

Q: And the clearance ([7]; IV)?
A: 5.6 mL/min/kg

Q: What about the AUC ([7]; PO) of the same molecule?
A: 17.3 µM·h

Q: What about the bioavailability ([7]; PO) of the same molecule?
A: 92.3%
